Values belong to the molecule of their own block, whether it stands above or below them. Square brackets hold non-standard residues; d marks the D form. Peptide text beside a SMILES is read from it. * marks the point of attachment. pNA = O=[N+]([O-])c1ccc(N*)cc1; dNle = CCCC[C@@H](N)C(=O)O; Moc = COC(=O)*
What was measured:
Type in all cases: biochemical
Set-up in all cases: coding for the FIX protease domain from amino acid position 181 to 415; Met (ATG start codon) (N); made in house
[1] = target: T1, rFIXa (human) (Homo sapiens, UniProt P00740); test: Influence of alcohols and organic solvents on the activity of rFIXa, chromogenic peptide substrates; conditions: for V/V0: MeSO2-D-HHT-Gly-Arg-pNA 1.02 mmol/l, 0.48 μmol/l rFIXa; for V/V0 / effect on the activity of rFIXa (in words): pH 7.4; for effect on the activity of rFIXa (in words): additive 0-50%, MeSO2-D-HHT-Gly-Arg-pNA
Method: The reaction was started by adding FIXa.
MeSO2 -D-HHT-Gly-Arg-pNA→MeSO2 -D-HHT-Gly-Arg+pNA measurement signal: pNA
(§1) 0.48 μmol/l rFIXa (human)
0-50% (alcohol or organic solvent)
The ratio V/V0 was calculated to illustrate the stimulation of the catalytic activity of rFIXa.
V0, reaction rate without additives
V, reaction rate in the presence of additives
Test Mixture Chromogenic (Concentration in the Test)
Target sequence in this assay (P00740 227-461 limits assumed): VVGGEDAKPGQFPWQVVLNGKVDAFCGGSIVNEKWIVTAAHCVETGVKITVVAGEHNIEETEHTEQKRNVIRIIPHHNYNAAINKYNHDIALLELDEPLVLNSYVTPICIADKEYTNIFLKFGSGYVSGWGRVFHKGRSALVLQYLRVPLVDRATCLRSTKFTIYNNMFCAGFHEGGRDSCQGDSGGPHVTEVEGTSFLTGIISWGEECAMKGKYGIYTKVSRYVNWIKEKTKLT
Target sequence in this assay (P00740 131-226 partner limits assumed): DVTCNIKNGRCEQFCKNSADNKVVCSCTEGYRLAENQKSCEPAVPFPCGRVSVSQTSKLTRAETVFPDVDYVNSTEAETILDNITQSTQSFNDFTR

[2] = target: T1, rFIXa (human); test: Kinetics of cleavage of chromogenic peptide substrates by rFIXa with ethylene glycol (Lineweaver Burk); conditions: substrate MOC-D-Nle-Gly-Arg-pNA, rFIXa 0.48 μmol/l, pH 7.4
Method: MeSO2 -D-HHT-Gly-Arg-pNA (0.102-1.02 mmol/l)
as §1
Target sequence in this assay (P00740 227-461): as the sequence (P00740 227-461 limits assumed) above
Target sequence in this assay (P00740 131-226): as the sequence (P00740 131-226 partner limits assumed) above
MOC-D-Nle-Gly-Arg-pNA (0.102-1.02 mmol/l)
MeSO2 -D-CHG-Gly-Arg-pNA (0.102-1.02 mmol/l)
0.28 μmol/l rFIXa (human)
The kinetic constants (Kcat /Km) were determined graphically according to Lineweaver Burk (Km and Kcat cannot be determined separately since the straight lines go through the origin).

[3] = target: T1, rFIXa (human); test: Influence of known protease inhibitors on the activity of rFIXa
Method: Specific FIXa inhibitors can be identified by the inhibition of FIXa activity. For this purpose the FIXa activity is determined with a substrate of the R-D-Xxx-Gly-Arg-pNA type (Xxx=hydrophobic amino acid) in the absence and presence of the substance to be tested or of a substance mixture and the percentage inhibition is calculated from the quotients. The inhibition constant Ki is determined from the inhibition kinetics. The measurement signal is amplified by the presence of high concentrations of certain alcohols (preferably ethylene glycol).
200 μl buffer (100 mmol/l Tris-HCl, 100 mmol/l NaCl, 5 mmol/l CaCl2, 20-40% alcohol, pH 7-9) the buffer contains the inhibitor at various concentrations […]
The reaction can also be terminated after 5-10 min by stopping with acetic acid (25 μl, 50%), the absorbance is determined at 405 nm against a reagent blank.
Influence of Known Protease Inhibitors on the Activity of rFIXa Using Different pHs, Alcohols and Alcohol Concentrations 42 mmol/l Tris-HCl, pH 7.4 or 8.5 substrate MeSO2 -D-CHG-Gly-Arg-pNA (1.02 mmol/l) […]
inhibitor at stepped concentrations (4.1-163 μmol/l)
Known synthetic inhibitors of the 3-amidinophenylalanine type were used as inhibitors (Sturzebecher et al, J. Enzyme. Inhibition 9 (1995) 87 and WO 92/08709) (1991)). The inhibitory effect was examined at a low and at a high alcohol concentration as an example.
Target sequence in this assay (P00740 227-461 limits assumed): as the sequence (P00740 227-461 limits assumed) above
Target sequence in this assay (P00740 131-226 limits assumed): as the sequence (P00740 131-226 partner limits assumed) above

SMILES: CC#N [Acetonitrile]
- V/V0 ([1]; 8% additive): 0.828
- V/V0 ([1]; 16% additive): 0.314
- V/V0 ([1]; 25% additive): 0
- V/V0 ([1]; 33% additive): 0
- V/V0 ([1]; 41% additive): 0
- V/V0 ([1]; 50% additive): 0
- effect on the activity of rFIXa (in words) [1]: inactivate the enzyme

SMILES: CN(C)C=O [DMF, dimethylformamide]
- V/V0 ([1]; 8% additive): 0.649
- V/V0 ([1]; 16% additive): 0.514
- V/V0 ([1]; 25% additive): 0
- V/V0 ([1]; 33% additive): 0
- V/V0 ([1]; 41% additive): 0
- V/V0 ([1]; 50% additive): 0
- effect on the activity of rFIXa (in words) [1]: inactivate the enzyme

SMILES: C[S+](C)[O-] [DMSO, dimethylsulfoxide]
- V/V0 ([1]; 8% additive): 1.27
- V/V0 ([1]; 16% additive): 1.45
- V/V0 ([1]; 25% additive): 1.59
- V/V0 ([1]; 33% additive): 1.43
- V/V0 ([1]; 41% additive): 0.922
- V/V0 ([1]; 50% additive): 0.157
- effect on the activity of rFIXa (in words) [1]: does not inhibit rFIXa up to 30%

SMILES: CO [Methanol]
- V/V0 ([1]; 8% additive): 2.16
- V/V0 ([1]; 16% additive): 3.46
- V/V0 ([1]; 25% additive): 3.71
- V/V0 ([1]; 33% additive): 2.83
- V/V0 ([1]; 41% additive): 1.55
- V/V0 ([1]; 50% additive): 0.588
- stimulation of the activity of rFIXa ([1]; concentration range of 15-40%): 5-15 fold

SMILES: CC(C)(C)O [t-Butanol]
- V/V0 ([1]; 8% additive): 2.05
- V/V0 ([1]; 16% additive): 1.67
- V/V0 ([1]; 25% additive): 0.702
- V/V0 ([1]; 33% additive): 0.368
- V/V0 ([1]; 41% additive): 0.263
- V/V0 ([1]; 50% additive): 0.263

More lines, main results first:

- V/V0 ([1]; 8% additive): 1.12
- V/V0 ([1]; 16% additive): 1.64
- V/V0 ([1]; 25% additive): 2.47
- V/V0 ([1]; 33% additive): 3.38
- V/V0 ([1]; 41% additive): 4.82
- V/V0 ([1]; 50% additive): 5.91
SMILES: OCC(O)CO [Glycerol]
- effect on the activity of rFIXa (in words) [1]: does not stimulate until higher concentrations (25-50%)

- kkat /Km ([2]; 16% ethylene glycol): 326 M⁻¹ s⁻¹
- kkat /Km ([2]; 25% ethylene glycol): 565 M⁻¹ s⁻¹
- kkat /Km ([2]; 33% ethylene glycol): 552 M⁻¹ s⁻¹
- kkat /Km ([2]; 41% ethylene glycol): 360 M⁻¹ s⁻¹
- kkat /Km ([2]; 50% ethylene glycol): 148 M⁻¹ s⁻¹
SMILES: CCCC[C@@H](NC(=O)OC)C(=O)NCC(=O)N[C@@H](CCCNC(=N)N)C(=O)Nc1ccc([N+](=O)[O-])cc1 [MOC--D--Nle--Gly--Arg--pNA, MOC-D-Nle-Gly-Arg-pNA] (Moc-[dNle]-Gly-Arg-pNA)

- V/V0 ([1]; 8% additive): 2.17
- V/V0 ([1]; 16% additive): 2.48
- V/V0 ([1]; 25% additive): 1.18
- V/V0 ([1]; 33% additive): 0.346
- V/V0 ([1]; 41% additive): 0.164
- V/V0 ([1]; 50% additive): 0.164
SMILES: CC(C)O [i-Propanol]

- V/V0 ([1]; 8 g/100 ml additive): 1.16
- V/V0 ([1]; 16 g/100 ml additive): 1.35
- V/V0 ([1]; 25 g/100 ml additive): 1.49
- V/V0 ([1]; 33 g/100 ml additive): 1.56
- V/V0 ([1]; 41 g/100 ml additive): 1.64
- V/V0 ([1]; 50 g/100 ml additive): 1.77
- effect on the activity of rFIXa (in words) [1]: only has a slight effect
SMILES: OC[C@@H](O)[C@@H](O)CO [m-Erythritol]

- V/V0 ([1]; 8% additive): 3.43
- V/V0 ([1]; 16% additive): 2.26
- V/V0 ([1]; 25% additive): 0.339
- V/V0 ([1]; 33% additive): 0.186
- V/V0 ([1]; 41% additive): 0.056
- V/V0 ([1]; 50% additive): 0.056
SMILES: CCCO [n-Propanol]

- Inhibition of the activity of factor IXa (in %) ([3]; inhibitor 4.1 μmol/l, pH 7.4, 4.1% ethanol, 0.57 μmol/l rFIXa): 97.2%
- Inhibition of the activity of factor IXa (in %) ([3]; inhibitor 4.1 μmol/l, pH 7.4, 33% ethylene glycol, 0.057 μmol/l rFIXa): 100%
- Inhibition of the activity of factor IXa (in %) ([3]; inhibitor 4.1 μmol/l, pH 8.5, 4.1% ethanol, […] rFIXa): 100%
- Inhibition of the activity of factor IXa (in %) ([3]; inhibitor 4.1 μmol/l, pH 8.5, 33% ethylene glycol, […] rFIXa): 100%
- Inhibition of the activity of factor IXa (in %) ([3]; inhibitor 8.2 μmol/l, pH 7.4, 4.1% ethanol, 0.57 μmol/l rFIXa): 97.2%
- Inhibition of the activity of factor IXa (in %) ([3]; inhibitor 8.2 μmol/l, pH 7.4, 33% ethylene glycol, 0.057 μmol/l rFIXa): 100%
- Inhibition of the activity of factor IXa (in %) ([3]; inhibitor 8.2 μmol/l, pH 8.5, 4.1% ethanol, […] rFIXa): 96.2%
- Inhibition of the activity of factor IXa (in %) ([3]; inhibitor 8.2 μmol/l, pH 8.5, 33% ethylene glycol, […] rFIXa): 97.9%
- Inhibition of the activity of factor IXa (in %) ([3]; inhibitor 16.3 μmol/l, pH 7.4, 4.1% ethanol, 0.57 μmol/l rFIXa): 88.2%
- Inhibition of the activity of factor IXa (in %) ([3]; inhibitor 16.3 μmol/l, pH 7.4, 33% ethylene glycol, 0.057 μmol/l rFIXa): 85.4%
- Inhibition of the activity of factor IXa (in %) ([3]; inhibitor 16.3 μmol/l, pH 8.5, 4.1% ethanol, […] rFIXa): 86.2%
- Inhibition of the activity of factor IXa (in %) ([3]; inhibitor 16.3 μmol/l, pH 8.5, 33% ethylene glycol, […] rFIXa): 88.4%
- Inhibition of the activity of factor IXa (in %) ([3]; inhibitor 40.8 μmol/l, pH 7.4, 4.1% ethanol, 0.57 μmol/l rFIXa): 75.4%
- Inhibition of the activity of factor IXa (in %) ([3]; inhibitor 40.8 μmol/l, pH 7.4, 33% ethylene glycol, 0.057 μmol/l rFIXa): 62.6%
- Inhibition of the activity of factor IXa (in %) ([3]; inhibitor 40.8 μmol/l, pH 8.5, 4.1% ethanol, […] rFIXa): 77.5%
- Inhibition of the activity of factor IXa (in %) ([3]; inhibitor 40.8 μmol/l, pH 8.5, 33% ethylene glycol, […] rFIXa): 78.4%
- Inhibition of the activity of factor IXa (in %) ([3]; inhibitor 81.6 μmol/l, pH 7.4, 4.1% ethanol, 0.57 μmol/l rFIXa): 57.0%
- Inhibition of the activity of factor IXa (in %) ([3]; inhibitor 81.6 μmol/l, pH 7.4, 33% ethylene glycol, 0.057 μmol/l rFIXa): 41.0%
- Inhibition of the activity of factor IXa (in %) ([3]; inhibitor 81.6 μmol/l, pH 8.5, 4.1% ethanol, […] rFIXa): 63.8%
- Inhibition of the activity of factor IXa (in %) ([3]; inhibitor 81.6 μmol/l, pH 8.5, 33% ethylene glycol, […] rFIXa): 66.0%
- Inhibition of the activity of factor IXa (in %) ([3]; inhibitor 163 μmol/l, pH 7.4, 4.1% ethanol, 0.57 μmol/l rFIXa): 25.7%
- Inhibition of the activity of factor IXa (in %) ([3]; inhibitor 163 μmol/l, pH 7.4, 33% ethylene glycol, 0.057 μmol/l rFIXa): 28.9%
- Inhibition of the activity of factor IXa (in %) ([3]; inhibitor 163 μmol/l, pH 8.5, 4.1% ethanol, […] rFIXa): 48.8%
- Inhibition of the activity of factor IXa (in %) ([3]; inhibitor 163 μmol/l, pH 8.5, 33% ethylene glycol, […] rFIXa): 45.4%
SMILES: N=C(N)c1cccc(CC(NS(=O)(=O)c2ccc3ccccc3c2)C(=O)N2Cc3ccccc3CC2C(=O)O)c1 (centres unmarked) [βNAPS-(3-Am)Phe-TIC-OH, Nα-(2-naphthylsulfonyl)-3-amidino-(D,L)-phenylalanine-1,2,3,4-tetrahydroisoquinoline-3-carboxylic acid]
